Measured values reported in patent publication US11224577B2, “Treating infection by a platelet-targeting microbe using nanoparticles” (The Regents of the University of California, priority 2015, dated 2022).

Type: physicochemical
Description: 100 nm polymeric cores were prepared using 0.67 dL g^−1 carboxyl-terminated 50:50 poly(lactic-co-glycolic) acid (PLGA) (LACTEL Absorbable Polymers) in a nanoprecipitation process. 1 mL of 10 mg mL^−1 PLGA solution in acetone was added dropwise to 3 mL of water. For fluorescently labeled nanoformulations, 1,1′-dioctadecyl-3,3,3′,3′-tetramethylindodicarbocyanine perchlorate (DiD, ex=644 nm/em=665 nm, Life Technologies) was loaded into the polymeric cores at 0.1 wt %. The mixture was then stirred in open air for 1 h and placed in vacuum for another 3 h. The resulting nanoparticle solution was filtered with 10 kDa MWCO Amicon Ultra-4 Centrifugal Filters (Millipore). Platelet membrane cloaking was then accomplished by dispersing and fusing platelet membrane vesicles with PLGA particles via sonication using an FS30D bath sonicator at a frequency of 42 kHz and a power of 100 W for 2 min. […] The nanoparticle solutions were subject to either a freeze-thaw cycle or lyophilization followed by resuspension. The resulting particle solution was then monitored for particle size using DLS. […] RBCNPs were prepared using the same polymeric cores and RBC membranes of equivalent total surface area to the platelet membranes using a previously described protocol^16.

What does the source list for PNPs?
colloidal stability: Improved colloidal stability; size and stability after storage: retain their size and stability
